{"source": "patent US9744250B2", "about": "“Chemical model of a neurodegenerative disease, method for preparation and uses of same” (priority 2012, dated 2017)", "key": {"α-synuclein": {"test_system": "α-synuclein", "experiment": "Cellular accumulation of α-synuclein (Western blot) in SH-SY5Y cells", "type": "cell-based, human", "conditions": "1 mM, 96 h incubation", "method": "Cells were incubated under the same conditions as above with furosemide pyridinium (1 mM, incubation: 96 h) and MPP+ (1 mM, incubation: 6 h, wait 24 h). After incubation, the cells were trypsinized, rinsed with PBS, counted, then harvested in 100 μl of buffer containing: 250 mM sucrose; 70 mM KCl; 137 mm NaCl; 4.3 mm NaH2PO4; 1.4 mm KH2PO4, pH 7.2; and […] digitonin. Incubation at 4° C. was then conducted for 5 minutes before centrifuging at 13,000 g for 5 minutes to separate the cytosolic and lysosomal fraction from the mitochondrial fraction. Deposits of cytosolic fraction in the Western blot were adjusted according to the number of cells. The protein samples were diluted in 4× Laemmli and were then heated for 3 minutes at 95° C. to denature. They were loaded into the wells of gel. In addition to the samples, a molecular weight marker (Fermentas) was deposited in the gel. […] The transfer was carried out on PVDF membrane. The transfer was done in transfer buffer (25 mM Tris, 192 mM glycine, 10% methanol) overnight at 4° C. and 30V or for 2 hours at 4° C. and 80V. […] Then the membranes were immunolabeled for 1.5 h at room temperature with a primary antibody diluted in 1×PBS/0.2% Tween/3% milk. […] The primary antibody used was anti-α-synuclein, 1:500 (visualized with an anti-rabbit secondary antibody, 1:10,000)."}, "caspase-3": {"test_system": "caspase-3", "experiment": "Caspase-3 activity (Ac-DEVD-AFC cleavage) in SH-SY5Y cells", "type": "cell-based, human", "conditions": "1 mM, 96 h", "method": "(§1) Measurement of the activities of the various caspases is based on the ability of the caspases to cleave specific fluorescent substrates: Ac-DEVD-AFC for caspase-3, Ac-IETD-AFC for caspase-8, or Ac-LEHD-AFC for caspase-9. SH-SY5Y neuronal cells were incubated in 48-well plates with either furosemide pyridinium (1 mM) for 96 h or with MPP+ (1 mM) for 6 h, then 24 h of incubation with no MPP+. After incubation, the cells were trypsinized, then rinsed with PBS and counted, then harvested in 100 μl of buffer containing 30 mM HEPES, 0.3 mM EDTA, 100 mM NaCl, 0.15% Triton X-100, and 10 mM DTT. The cell extract was then incubated for 1 hour at 37° C. with the specific substrate (100 μM) in a 96-well plate. Fluorescence was measured at λex400 nm and λem505 nm in a fluorescence detection plate reader (TECAN Infinite M1000) (Yue et al., supra). The results were expressed as percentages relative to the measured activity of cells cultured under the same conditions and not subjected to any treatment."}, "rats": {"test_system": "rats", "experiment": "Lethality of 7-day oral administration in rats", "type": "in vivo, rat", "conditions": "daily dose of 20 mg/kg for seven days", "method": "A platform for electrophysiological and behavioral monitoring of the rats was used. For this, a subcutaneous implant (Data Science) was placed in the rats which allowed the EEG to be recorded by telemetry, leaving the animal completely free to move about. The cage was equipped with a video camera (10 frames per second) and an infrared light to allow recordation of the animal's activity. The EEG and video sequences were recorded in sequences of 10 seconds, and a set of variables was calculated for each sequence. The use of dedicated software allowed integration of these variables over the entire recording to detect changes in the animal's activity, EEG, and circadian rhythms. Each animal served as its own control because it was recorded for 5 days prior to furosemide pyridinium administration. The solution of furosemide pyridinium (20 mg) was dissolved in dimethylsulfoxide (DMSO, 200 μl) and then diluted with water (50 ml). The solution was replaced every day and administered for 7 days in the drinking water at a dose of 20 mg/kg. The rats were then sacrificed 5 weeks after the last dose. The rats were anesthetized with pentobarbital and infused intracardially with saline ([…]), then fixed with 4% paraformaldehyde. After the infusion, the brain was removed and placed in NaCl (0.9%) at 4° C. The brain was frozen in Tissue Tek immersed in a cold isopentane bath. […]"}, "mice": {"test_system": "mice", "experiment": "Lethality of 7-day oral administration in mice", "type": "in vivo, mouse", "conditions": "daily dose of 20 mg/kg for seven days", "method": "(§2) Swiss mice were divided into two groups of five animals (experimental and control). The experiments were performed independently two times. The mice of the experimental group were exposed to furosemide pyridinium for 7 days at a daily dose of 20 mg/kg. The furosemide pyridinium was administered orally in the drinking water. The mice were sacrificed 30 days after the end of the furosemide pyridinium treatment."}, "caspase-9": {"test_system": "caspase-9", "experiment": "Caspase-9 activity (Ac-LEHD-AFC cleavage) in SH-SY5Y cells", "type": "cell-based, human", "conditions": "1 mM, 96 h", "method": "as §1"}, "tyrosine hydroxylase": {"test_system": "tyrosine hydroxylase", "experiment": "Immunohistochemistry of tyrosine hydroxylase in exposed mice", "type": "in vivo, mouse", "conditions": "20 mg/kg/day oral 7 days, 30 days after end of exposure", "method": "as §2\n(§3) For this, the mice were anesthetized with pentobarbital (50 mg/Kg), then an intracardiac infusion of NaCl (0.9%) was administered, followed by fixation by an infusion of 4% paraformaldehyde in 0.1M phosphate buffer, pH 7.2. The brain was removed, placed in NaCl (0.9%) at 4° C., and frozen in Tissue Tek immersed in a cold isopentane bath. Coronal sections of eight microns were obtained using a cryostat and were processed for immunohistochemistry (labeling the tyrosine hydroxylase and the Ser129-phosphorylated alpha-synuclein)."}, "[1]": {"test_system": "mitochondrial respiratory chain", "experiment": "Respiratory chain activity of mitochondria from striata of exposed mice", "type": "in vivo, mouse", "conditions": "20 mg/kg/day oral 7 days, 30 days after end of exposure", "method": "Added to the polarography chamber (Hansatech) were 30 μl of mitochondria solution (0.2 mg), 460 μL of respiration buffer, 5 μl of test compound solution (meaning MPP+ or furosemide pyridinium) (or its solubilizing solvent). Then 5 μl of a 10/10 mM mixture of malate-pyruvate substrates were added, which allowed the respiratory chain to function (stage 2) starting from complex I. After about 40 seconds, 5 μl of 200 μM ADP were added, resulting in an increase in oxygen consumption as the ADP activated complex V (stage 3). Once all the ADP was consumed, the oxygen consumption returned to an initial stage (stage 4) that is equivalent to stage 2. The effect of the compound on respiratory control was evaluated (ratio of stage 3 to 4), which corresponds to the coupling of the respiratory chain, or in other words the ATP synthesis at complex V and the oxygen consumption due to complexes I to IV. The results are expressed as percentages of the value measured for mitochondria not treated with the test compound (but treated with the solubilizing solvent).\nSwiss mice were divided into two groups of five animals (experimental and control). The experiments were performed independently two times. The mice of the experimental group were exposed to furosemide pyridinium for 7 days at a daily dose of 20 mg/kg. The furosemide pyridinium was administered orally in the drinking water. […]"}, "[2]": {"test_system": "α-synuclein phosphorylated at serine 129", "experiment": "Immunohistochemistry of Ser129-phosphorylated alpha-synuclein in exposed mice", "type": "in vivo, mouse", "conditions": "20 mg/kg/day oral 7 days, 30 days after end of exposure", "method": "as §2, §3"}}}
{"smiles": "NS(=O)(=O)c1cc(C(=O)[O-])c(-[n+]2cccc(O)c2)cc1Cl", "note": "[furosemide pyridinium, 4-chloro-2-(3-hydroxypyridinium-1-yl)-5-sulfamoylbenzoate]", "values": [{"measurement": "increase in the total amount of α-synuclein compared to control cells", "setting": "α-synuclein", "value": 40, "unit": "%"}, {"measurement": "activity of caspase-3 compared to untreated cells", "setting": "caspase-3", "value": 179, "unit": "%"}, {"measurement": "lethality", "setting": "rats", "value": "not lethal"}, {"measurement": "lethality", "setting": "mice", "value": "not lethal"}, {"measurement": "enzymatic activity of caspase-9 compared to untreated cells", "setting": "caspase-9", "value": 170, "unit": "%"}, {"measurement": "labeling of tyrosine hydroxylase in the striata", "setting": "tyrosine hydroxylase", "value": "net reduction"}, {"measurement": "decrease in respiratory control of striatal mitochondria vs control animals", "setting": "[1]", "value": 28, "unit": "%"}, {"measurement": "α-synuclein phosphorylated at serine 129 in the cortexes", "setting": "[2]; cortex", "value": "no increase"}, {"measurement": "α-synuclein phosphorylated at serine 129 in the striata", "setting": "[2]; striatum", "value": "sharp increase"}]}
